Entries after “also recorded” stand apart in the source; their conditions may differ. Like-named read-outs stand apart in the source and are kept apart here.
Legend:
[1] = biological target: T1, human norepinephrine transporter (Homo sapiens, UniProt P23975); experiment: Norepinephrine Transporter Competition Binding Assay; details: NET Ki
T1 construct: expressed in transfected cells
Description: Norepinephrine Transporter Competition Binding Assay
Preparation of solutions of test and reference compounds
First, 10 mM stock solutions of tested compounds were prepared in DMSO. Serial dilutions of compounds were prepared in a 96-well microplate in an assay buffer using the automated pipetting system epMotion 5070. Each compound was tested in 8 concentrations ranging from 10^-3 to 10^-10 M (final concentration).
Radioligand binding was performed using membranes from the MDCK cell line stably transfected with the human norepinephrine transporter. All assays were carried out in duplicates. Volumes of 50 µl working solution of the tested compounds, 50 µl [ 3H]- Nisoxetine (spec. act. 80.2 Ci/mmol, final concentration 4 nM), and 150 µl diluted membranes (5 µg protein per well) prepared in assay buffer (50 mM Tris -HCl, pH 7.4; 120 mM NaCl; 5 mM KCl) were transferred to polypropylene 96-well microplate using 96-wells pipetting station Rainin Liquidator. Desipramine (10 μM) was used to define nonspecific binding. The microplate was covered with sealing tape, mixed, and incubated for 60 minutes at 4 °C. The reaction was terminated by rapid filtration through GF/B filter mate presoaked with 0.5% polyethyleneimine for 30 minutes. Five rapid washes with 300 µl 50 mM Tris buffer (4 °C, pH 7.4) were performed using a 96 -well FilterMate harvester. The filter mates were dried at 37 °C in the forced air fan incubator, and then, solid scintillator MeltiLex B/HS was melted on filter mates at 90 °C for 4 minutes. Radioactivity was counted in the MicroBeta2 scintillation counter (PerkinElmer). Data were fitted to a one -site curve-fitting equation with Prism 8.0 (GraphPad Software), and Ki values were estimated from the […]
Result of Norepinephrine Transporter Competition Binding Assay
Table S9. Results of binding to norepinephrine transporter (NET) of tested compounds COMPOUND Ki [nM] pKi Ki [nM] pKi Ki [nM] pKi

[2] = Pharmacokinetic study after i.g. administration; assay type: in vivo; details: mice
Description: Pharmacokinetic study after i.p. and i.g administration
mg/kg), blood samples were collected from mice under deep terminal anesthesia directly by cardiac puncture into heparinized 1.5 mL tubes at selected time intervals.
The samples were centrifuged at 3,000 × g for 10 min (10 °C), and the plasma samples were stored at -80 °C until the HPLC analysis.
The blood in brain vessels would interfere with the assay of actual brain tissue concentrations.
Therefore, the animals were perfused transcardially with saline solution (0.9% NaCl) for 5 min (10 mL/min). After perfusion, the skull was opened, and the brain was carefully removed and immediately stored at -80 °C until the HPLC analysis.
UHPLC-MS method for pharmacokinetics study
Ultra high-performance liquid chromatography system consisting of Ultimate 3000 RS pump Dionex (Thermo Scientific, San Jose, CA, USA) coupled with high-resolution mass spectrometer with orbitrap analyzer (Q Exactive Focus, Thermo Scientific, San Jose, CA, USA) was used in quantitative analyses of 6 in plasma and brain homogenate. According to the EMA[43] and FDA[42] guidelines on Bioanalytical method validation, the method was fully validated for plasma and partially for brain homogenate.
Before analysis, 50 μL of plasma or brain homogenate was precipitated with an internal
standard of 200 μL acetonitrile (ACN). The mixture was vortexed for 1 min at 1,500 rpm and
centrifuged at 12,074 g for 5 min at 20 °C. The supernatant was then transferred to an
injection vial and analyzed.
mm ID (Phenomenex, Torrance, CA, USA), protected with a guard column SecurityGuard
was performed in gradient elution mode with a flow rate of 0.6 mL/min and the following
composition of mobile phase: A) 0.1% FA in water (v/v) and B) 0.1% FA in ACN/MeOH in
The column was kept at 45 °C during
analysis. Samples were held at 10 °C in a light-tight autosampler unit.
Heated-Electrospray Ionization II interface (HESI-II) in positive ion mode was used with the
following settings: spray voltage; +3.5 kV, S-lens RF level; +70 V, capillary temperature 350
°C, auxiliary gas heater temperature; 350 °C, sheet, and auxiliary gas flow; 45 and 15
arbitrary units, respectively. Full MS mode was used at resolution (m/𝛥m) ̴70,000 for
Xcalibur software (v 4.0) was used for data evaluation.

[3] = tested on: mice treated with scopolamine; experiment: Barnes maze (BM) task; assay type: in vivo, C57BL/6J mice
Description: Animals and housing conditions
In all pharmacodynamic in vivo experiments, except for the Barnes maze (BM) task, adult male Albino Swiss (CD-1) mice weighing between 18 and 22 g and purchased from the Animal Breeding Farm of the Faculty of Pharmacy, Jagiellonian University Medical College were used. In BM task, C57BL/6J mice of the same weight (Animalab, Poland) were used.
Animals were housed in cages (10 mice per cage) at a constant temperature of 22 ± 2 °C, humidity of 55 ± 10%, and a light/dark (12:12) cycle (lights on at 7 AM). Before the experiments, the animals had unlimited access to food and water. Specified conditions for the maintenance of mice were ensured throughout the experiments, including tree bedding (Transwior, Poland) and cage enrichment (tunnels, nesting material, wooden igloos, etc.). For the behavioral test, the mice were selected randomly; each group consisted of 7-12 mice. The experiments were performed between 9 AM and 3 PM. After in vivo tests, the animals were […]
Ethical approval statement
The procedures for the maintenance and treatment of laboratory animals were approved by the 1st Local Ethics Committee of the Jagiellonian University in Krakow (Approvals No.
524/2021, 618/2022), and the treatment of animals was in full accordance with ethical […]
Drugs and dose selection for the in vivo tests
For in vivo assays 6 was suspended in 1% Tween 80 (Sigma Aldrich, Poland) and administered intraperitoneally (i.p.) 60 min before the acquisition trial of the passive avoidance (PA) task, BM task and 60 min before the forced swim test (FST), four-plate test (FPT) and elevated plus maze (EPM) test. Doses 10 mg/kg and 30 mg/kg were the starting […]
doses for behavioral assays. Lower doses were also assessed if at least one of them was […]
Scopolamine hydrobromide used at the dose of 1 mg/kg for the induction of learning and memory deficits was supplied by Sigma Aldrich (Poland). The dose of scopolamine was chosen based on our previous studies[44,45] and available literature data.[46] […]
Effect on spatial learning and memory – Barnes maze task
Spatial learning and memory in mice were also assessed using the BM task.[47] This task was performed with the BM apparatus (Panlab-Harvard Apparatus, Spain). It consists of a circular, dry, open platform surface equipped with 18 holes around the perimeter of the platform and a small dark recessed chamber located under one of them. Visual extra-maze cues (pictures of colored geometric figures with contrasting backgrounds placed at a distance of 1 m from the platform) were provided to facilitate learning. A weak aversive stimulus (light 600 lx) was applied to increase the animals’ motivation to escape from the circular platform.
The spatial acquisition trial was performed during the first 4 days of the experiment. On the first day of the test, an additional adaptation period preceded a proper trial. In this phase, mice were individually placed in a cylindrical black start chamber in the middle of the circular maze. Ten seconds later, the mouse was released from the start chamber, the light was turned on, and the animal was gently guided to the escape box (a small dark recessed chamber under the BM platform), where it remained for the next 2 min. This phase was not preceded by drug […]
In the spatial acquisition phase, each mouse was subjected to four trials daily, keeping 15-min intervals between each trial. […]

[4] = 10 mg/kg i.p. + scopolamine, vs scopolamine control
[5] = 10 mg/kg, retention trial, vs scopolamine control

T1 sequence (P23975 whole entry): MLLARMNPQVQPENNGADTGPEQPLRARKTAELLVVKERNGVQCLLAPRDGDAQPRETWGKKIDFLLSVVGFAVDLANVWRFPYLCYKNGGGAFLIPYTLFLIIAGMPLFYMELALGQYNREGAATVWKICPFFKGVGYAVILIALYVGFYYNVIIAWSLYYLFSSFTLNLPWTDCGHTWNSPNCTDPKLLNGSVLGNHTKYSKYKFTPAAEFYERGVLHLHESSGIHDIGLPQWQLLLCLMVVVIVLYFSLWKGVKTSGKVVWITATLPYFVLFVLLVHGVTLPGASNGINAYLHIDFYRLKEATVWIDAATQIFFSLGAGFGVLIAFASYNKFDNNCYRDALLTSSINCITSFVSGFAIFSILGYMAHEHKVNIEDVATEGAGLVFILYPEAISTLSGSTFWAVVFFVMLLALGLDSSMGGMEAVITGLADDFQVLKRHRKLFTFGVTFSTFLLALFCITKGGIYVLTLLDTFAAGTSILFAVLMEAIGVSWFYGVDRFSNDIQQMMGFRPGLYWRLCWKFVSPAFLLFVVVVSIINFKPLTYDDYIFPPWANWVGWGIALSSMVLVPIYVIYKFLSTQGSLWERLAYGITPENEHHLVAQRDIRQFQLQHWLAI

## O[C@H](CNCC1CC1)[C@H](Cc1ccccc1)NC1c2ccccc2-c2ccccc21 [Compound 6]
[1]
  Ki: 837 nM
[1]; third Ki column (likely the mean)
  Ki: 774 nM
[1]; [3H]-Nisoxetine
  Ki: 714 nM
[2]; ICR-CD1, mouse, brain and plasma, po, 10 mg/kg, 10 mg/kg i.g., read-out: Kp (AUCbrain/AUCplasma), brain-to-plasma ratio
  Kp: 1.98
[2]; ICR-CD1, mouse, brain, po, 10 mg/kg, 10 mg/kg i.g., read-out: brain Tmax (converted)
  Tmax: 3.33 h
[2]; ICR-CD1, mouse, plasma, po, 10 mg/kg, 10 mg/kg i.g.
  Cmax: 120 ± 30.7 ng/mL
[2]; ICR-CD1, mouse, plasma, po, 10 mg/kg, 10 mg/kg i.g., plasma, read-out: Half-life
  half-life: 3.54 ± 0.449 h
[2]; ICR-CD1, mouse, plasma, po, 10 mg/kg, 10 mg/kg i.g., plasma, read-out: Vss/F
  Vd/F: 120 ± 22.1 L/kg
[2]; ICR-CD1, mouse, plasma, po, 10 mg/kg, 10 mg/kg i.g., plasma, read-out: Vz/F
  Vd/F: 102 ± 22.9 L/kg
[2]; ICR-CD1, mouse, plasma, po, 10 mg/kg, 10 mg/kg i.g., read-out: plasma Tmax (converted)
  Tmax: 1.33 h
[2]; ICR-CD1, mouse, po, 10 mg/kg i.g., plasma
  MRT: 6.08 h
[2]; ICR-CD1, mouse, po, 10 mg/kg i.g., plasma, read-out: λz (converted)
  k el: 6e-05 s⁻¹
[2]; 10 mg/kg
  plasma AUCtotal i.g. as % of AUCtotal after i.p. administration of the same dose: approximately 60%
[2]; 10 mg/kg i.g.
  brain AUCtotal: 68,547.70 ± 9,216.46 min.ng/g
  brain Cmax: 158.63 ± 20.04 ng/g
  plasma AUCtotal: 34,630.80 ± 4,866.51 min.ng/mL
[2]; 10 mg/kg i.g., plasma
  CL: 320 ± 50 mL/min/kg
[2]; 10 mg/kg i.g., plasma, 10 mg/kg
  half-life: 3.53 h
[2]; 10 mg/kg i.g., 10 mg/kg
  plasma Cmax: 120 ng/mL
[3]; [4]
  latency to target, acquisition trial: Statistically significant differences were also observed on day 4; also recorded: statistically significantly reduced latency to target
  number of errors, acquisition phase (days 1-4): no statistically significant differences in the number of errors
[3]; 10 mg/kg, drug-off trial
  number of errors, day 5: no significant differences among groups
[3]; [5]
  latency to former target location, day 12: A similar effect was noted; also recorded: significantly shortened the latency to former target location
  number of errors, day 12: significantly reduced number of errors made; also recorded: reduced the number of errors

From publication PMC11796312, “Multifunctional, Fluorene‐Based Modulator of Cholinergic and GABAergic Neurotransmission as a Novel Drug Candidate for Palliative Treatment of Alzheimer's Disease” (Angewandte Chemie (International Ed. in English), 2024)
